Molecular target: T1, Prostaglandin E synthase (Homo sapiens, UniProt O14684)
T1 sequence (O14684 whole entry): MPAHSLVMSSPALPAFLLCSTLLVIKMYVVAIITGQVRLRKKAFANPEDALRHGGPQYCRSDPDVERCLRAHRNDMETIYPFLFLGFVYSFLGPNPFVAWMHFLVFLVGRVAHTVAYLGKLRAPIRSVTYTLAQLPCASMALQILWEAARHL
Experiment: Inhibition Assay: mPGES-1 microsome fractions were prepared from CHO-K1 cells transiently transfected with plasmid encoding the human mPGES-1cDNA. Microsomes were diluted with potassium phosphate buffer containing reduced glutathione (pH7.4), and DMSO containing test compound or DMSO alone was added (such that DMSO final concentration would be 1% in each) and incubated at 4° C. for 20 minutes. Then, the enzymatic reactions were initiated by the addition of PGH2 substrate (final concentration 1 μM) and incubated at 4° C. for 60 seconds. The reaction was terminated by the addition of a citrate solution (final citrate concentration 50 mM) containing ferric chloride (final concentration 1 mg/mL). PGE2 production in the enzyme reaction aliquot was measured using HTRF kit (Cisbio International, catalogue #62P2APEC).
Format: cell-based

IC50: 12.7 nM
Compound: O=C(Nc1cc(C(=O)NCc2ccccc2C(F)(F)F)c2nc[nH]c2c1)c1ccccc1C(F)(F)F

From ChEMBL document CHEMBL3886430, “Heterocyclic derivative and pharmaceutical drug” (2015)
